Test results reported in paper PMC11879280, “Antimicrobial activity of peptoids against Metallo-β-lactamase-producing Klebsiella pneumoniae, Acinetobacter baumannii, Pseudomonas aeruginosa, and other WHO priority pathogens, including Candida auris” (Journal of Applied Microbiology, 2025).
Where two headings read alike, the source gives them in different places. Square brackets hold non-standard residues; d marks the D form. Peptide text beside a SMILES is read from it. N(tridecyl)Gly = CCCCCCCCCCCCCNCC(=O)O; Nspe = C[C@H](NCC(=O)O)c1ccccc1; Nlys = NCCCCNCC(=O)O

Columns and labels:
Enterobacteriaceae = assay: Geometric mean MIC, therapeutic index and selectivity ratio, Enterobacteriaceae; assay type: cell-based; conditions: Enterobacteriaceae (E. coli, K. pneumoniae, and E. aerogenes)
Description: (§1) Briefly, bacteria were suspended in cation-adjusted Mueller–Hinton broth (CAMHB; Oxoid, UK) for antibiotics, or MHB (Oxoid, UK) for peptidomimetics to obtain 5 × 10^5 colony forming unit (CFU) ml^−1. […] Positive controls contained only microbes, and blanks contained only media. Microbial suspensions (100 µl) were added to wells, plates wrapped, and incubated at 37°C, 120 rpm for 16–20 h. After incubation, suspensions were removed, log10 diluted, and plated on Trypticase Soya Agar with phosphatidylcholine and Tween 80 to determine minimum bactericidal or fungicidal concentration (MBC or MFC). […] Geometric mean MIC of the peptoids were calculated to evaluate the broad overview of antimicrobial activity across the pathogens.
(§2) The therapeutic indices (TIs) of the compounds were calculated with the use of following formula: […]

A. baumannii 006 = tested on: A. baumannii 006
Description: as §1

En. cloacae 005 = tested on: En. cloacae 005
Description: as §1

K. pneumoniae JIE2713 = tested on: K. pneumoniae JIE2713
Description: as §1

A. baumannii 008 = tested on: A. baumannii 008
Description: as §1

P. aeruginosa AR-1270 = tested on: P. aeruginosa AR-1270
Description: as §1

S. aureus 117 = tested on: S. aureus 117
Description: as §1

E. coli 005 = tested on: E. coli 005
Description: as §1

En. cloacae 003 = tested on: En. cloacae 003
Description: as §1

E. coli 0015 = tested on: E. coli 0015
Description: as §1

[1] = tested on: Enteroc. faecalis NCTC 13 379
Description: as §1

K. pneumoniae JIE4212 = tested on: K. pneumoniae JIE4212
Description: as §1

A. baumannii 007 = tested on: A. baumannii 007
Description: as §1

K. pneumoniae JIE2709 = tested on: K. pneumoniae JIE2709
Description: as §1

E. coli 0011 = tested on: E. coli 0011
Description: as §1

En. cloacae 001 = tested on: En. cloacae 001
Description: as §1

S. aureus 38 = tested on: S. aureus 38
Description: as §1

S. aureus 04 = tested on: S. aureus 04
Description: as §1

A. baumannii ATCC 19 606 = tested on: A. baumannii ATCC 19 606
Description: as §1

S. aureus 105 = tested on: S. aureus 105
Description: as §1

[2] = tested on: ESKAPEE pathogens (all bacteria); assay: Geometric mean MIC, therapeutic index and selectivity ratio, all bacteria; assay type: cell-based; conditions: for Geometric mean MIC, all bacteria: across the 23 ESKAPEE strains
Description: as §1, §2

C. auris CBS12373 = assay: Broth microdilution MIC; assay type: cell-based, Candida auris
C. auris strains = conditions: two C. auris strains
Description: as §1, §2

[3] = CBS 10 913, RPMI 1640 with MOPS, 5 × 10^3 CFU ml^−1, ≥90% reduction (≥50% for fluconazole)
[4] = A. baumannii 006, MHB (melimine/Mel4 with 0.2% BSA, 0.01% acetic acid), mean MIC
[5] = En. cloacae 005, MHB (melimine/Mel4 with 0.2% BSA, 0.01% acetic acid), mean MIC
[6] = K. pneumoniae JIE2713, MHB (melimine/Mel4 with 0.2% BSA, 0.01% acetic acid), mean MIC
[7] = P. aeruginosa AR-1270, MHB (melimine/Mel4 with 0.2% BSA, 0.01% acetic acid), mean MIC
[8] = E. coli 005, MHB (melimine/Mel4 with 0.2% BSA, 0.01% acetic acid), mean MIC
[9] = En. cloacae 003, MHB (melimine/Mel4 with 0.2% BSA, 0.01% acetic acid), mean MIC
[10] = E. coli 0015, MHB (melimine/Mel4 with 0.2% BSA, 0.01% acetic acid), mean MIC
[11] = Enteroc. faecalis NCTC 13 379, MHB (melimine/Mel4 with 0.2% BSA, 0.01% acetic acid), mean MIC
[12] = K. pneumoniae JIE4212, MHB (melimine/Mel4 with 0.2% BSA, 0.01% acetic acid), mean MIC
[13] = A. baumannii 007, MHB (melimine/Mel4 with 0.2% BSA, 0.01% acetic acid), mean MIC
[14] = K. pneumoniae JIE2709, MHB (melimine/Mel4 with 0.2% BSA, 0.01% acetic acid), mean MIC
[15] = E. coli 0011, MHB (melimine/Mel4 with 0.2% BSA, 0.01% acetic acid), mean MIC
[16] = En. cloacae 001, MHB (melimine/Mel4 with 0.2% BSA, 0.01% acetic acid), mean MIC
[17] = A. baumannii ATCC 19 606, MHB (melimine/Mel4 with 0.2% BSA, 0.01% acetic acid), mean MIC
[18] = S. aureus 105, MHB (melimine/Mel4 with 0.2% BSA, 0.01% acetic acid), mean MIC
[19] = CBS 12 373, RPMI 1640 with MOPS, 5 × 10^3 CFU ml^−1, ≥90% reduction (≥50% for fluconazole)

C[C@@H](c1ccccc1)N(CC(N)=O)C(=O)CN(C(=O)CN(CCCCN)C(=O)CN(C(=O)CN(C(=O)CN(CCCCN)C(=O)CN(C(=O)CN(C(=O)CN(CCCCN)C(=O)CN(C(=O)CN(C(=O)CNCCCCN)[C@@H](C)c1ccccc1)[C@@H](C)c1ccccc1)[C@@H](C)c1ccccc1)[C@@H](C)c1ccccc1)[C@@H](C)c1ccccc1)[C@@H](C)c1ccccc1)[C@@H](C)c1ccccc1 [TM1] (H-[Nlys][Nspe][Nspe][Nlys][Nspe][Nspe][Nlys][Nspe][Nspe][Nlys][Nspe][Nspe]-NH2)
Geometric mean MICE (Enterobacteriaceae): 23.7 µg/mL
MIC against C. auris (C. auris CBS10913; [3]): 15.6 µg/mL
MIC against C. auris (C. auris CBS10913; CBS10913): 8.6 µM
MIC of peptidomimetics (A. baumannii 006; 006): 2.1 µM
MIC of peptidomimetics (A. baumannii 006; [4]): 3.9 µg/mL
MIC of peptidomimetics (En. cloacae 005): 8.6 µM
MIC of peptidomimetics (En. cloacae 005; [5]): 15.6 µg/mL
MIC of peptidomimetics (K. pneumoniae JIE2713; [6]): 62.5 µg/mL
MIC of peptidomimetics (K. pneumoniae JIE2713; K. pneumoniae JIE2713, value in brackets): 34.4 µM
MIC of peptidomimetics (A. baumannii 008; 008): 7.8 µg/mL
MIC of peptidomimetics (P. aeruginosa AR-1270; [7]): 31.3 µg/mL
MIC of peptidomimetics (P. aeruginosa AR-1270; P. aeruginosa AR-1270, value in brackets): 17.2 µM
MIC of peptidomimetics (S. aureus 117; 117): 7.8 µg/mL
MIC of peptidomimetics (E. coli 005; 005): 8.6 µM
MIC of peptidomimetics (E. coli 005; [8]): 15.6 µg/mL
MIC of peptidomimetics (En. cloacae 003): 34.4 µM
MIC of peptidomimetics (En. cloacae 003; [9]): 62.5 µg/mL
MIC of peptidomimetics (E. coli 0015; 0015): 17.2 µM
MIC of peptidomimetics (E. coli 0015; [10]): 31.3 µg/mL
MIC of peptidomimetics [1, 11]: 31.3 µg/mL
MIC of peptidomimetics ([1]; Enteroc. faecalis NCTC 13 379, value in brackets): 17.2 µM
MIC of peptidomimetics (K. pneumoniae JIE4212; [12]): 15.6 µg/mL
MIC of peptidomimetics (K. pneumoniae JIE4212; K. pneumoniae JIE4212, value in brackets): 8.6 µM
MIC of peptidomimetics (A. baumannii 007; 007): 2.1 µM
MIC of peptidomimetics (A. baumannii 007; [13]): 3.9 µg/mL
MIC of peptidomimetics (K. pneumoniae JIE2709; [14]): 15.6 µg/mL
MIC of peptidomimetics (K. pneumoniae JIE2709; K. pneumoniae JIE2709, value in brackets): 8.6 µM
MIC of peptidomimetics (E. coli 0011; 0011): 17.2 µM
MIC of peptidomimetics (E. coli 0011; [15]): 31.3 µg/mL
MIC of peptidomimetics (En. cloacae 001): 8.6 µM
MIC of peptidomimetics (En. cloacae 001; [16]): 15.6 µg/mL
MIC of peptidomimetics (S. aureus 38; 38): 7.8 µg/mL
MIC of peptidomimetics (S. aureus 04; 04): 7.8 µg/mL
MIC of peptidomimetics (A. baumannii ATCC 19 606; [17]): 3.9 µg/mL
MIC of peptidomimetics (A. baumannii ATCC 19 606; ATCC 19): 2.1 µM
MIC of peptidomimetics (S. aureus 105; 105): 2.1 µM
MIC of peptidomimetics (S. aureus 105; [18]): 3.9 µg/mL
Geometric mean MIC, all bacteria [2]: 13.0 µg/mL
Geometric mean MIC, all bacteria ([2]; value in brackets): 7.2 µM
MIC against C. auris (C. auris CBS12373; [19]): 3.9 µg/mL
MIC against C. auris (C. auris CBS12373; CBS12373): 2.1 µM
Geometric mean MICCA (C. auris strains): 7.8 µg/mL

CCCCCCCCCCCCCNCC(=O)N(CCCCN)CC(=O)N(CC(=O)N(CC(=O)N(CCCCN)CC(=O)N(CCCCN)CC(N)=O)[C@@H](C)c1ccccc1)[C@@H](C)c1ccccc1 [TM15] (H-[N(tridecyl)Gly][Nlys][Nspe][Nspe][Nlys][Nlys]-NH2)
Geometric mean MICE (Enterobacteriaceae): 50.8 µg/mL
MIC against C. auris (C. auris CBS10913; [3]): 250 µg/mL
MIC against C. auris (C. auris CBS10913; CBS10913): 259.6 µM
MIC of peptidomimetics (A. baumannii 006; 006): 64.9 µM
MIC of peptidomimetics (A. baumannii 006; [4]): 62.5 µg/mL
MIC of peptidomimetics (En. cloacae 005): 32.5 µM
MIC of peptidomimetics (En. cloacae 005; [5]): 31.3 µg/mL
MIC of peptidomimetics (K. pneumoniae JIE2713; JIE2713): 129.8 µM
MIC of peptidomimetics (K. pneumoniae JIE2713; [6]): 125 µg/mL
MIC of peptidomimetics (A. baumannii 008; 008): 32.5 µM
MIC of peptidomimetics (A. baumannii 008; A. baumannii 008, MHB (melimine/Mel4 with 0.2% BSA, 0.01% acetic acid), mean MIC): 31.3 µg/mL
MIC of peptidomimetics (P. aeruginosa AR-1270; AR-1270): 32.5 µM
MIC of peptidomimetics (P. aeruginosa AR-1270; [7]): 31.3 µg/mL
MIC of peptidomimetics (S. aureus 117; 117): 8.1 µM
MIC of peptidomimetics (S. aureus 117; S. aureus 117, MHB (melimine/Mel4 with 0.2% BSA, 0.01% acetic acid), mean MIC): 7.8 µg/mL
MIC of peptidomimetics (E. coli 005; 005): 64.9 µM
MIC of peptidomimetics (E. coli 005; [8]): 62.5 µg/mL
MIC of peptidomimetics (En. cloacae 003): 64.9 µM
MIC of peptidomimetics (En. cloacae 003; [9]): 62.5 µg/mL
MIC of peptidomimetics (E. coli 0015; 0015): 16.2 µM
MIC of peptidomimetics (E. coli 0015; [10]): 15.6 µg/mL
MIC of peptidomimetics [1, 11]: 31.3 µg/mL
MIC of peptidomimetics ([1]; NCTC 13): 32.4 µM
MIC of peptidomimetics (K. pneumoniae JIE4212; JIE4212): 64.9 µM
MIC of peptidomimetics (K. pneumoniae JIE4212; [12]): 62.5 µg/mL
MIC of peptidomimetics (A. baumannii 007; 007): 64.9 µM
MIC of peptidomimetics (A. baumannii 007; [13]): 62.5 µg/mL
MIC of peptidomimetics (K. pneumoniae JIE2709; JIE2709): 129.8 µM
MIC of peptidomimetics (K. pneumoniae JIE2709; [14]): 125 µg/mL
MIC of peptidomimetics (E. coli 0011; 0011): 64.9 µM
MIC of peptidomimetics (E. coli 0011; [15]): 62.5 µg/mL
MIC of peptidomimetics (En. cloacae 001): 16.2 µM
MIC of peptidomimetics (En. cloacae 001; [16]): 15.6 µg/mL
MIC of peptidomimetics (S. aureus 38; 38): 8.1 µM
MIC of peptidomimetics (S. aureus 38; S. aureus 38, MHB (melimine/Mel4 with 0.2% BSA, 0.01% acetic acid), mean MIC): 7.8 µg/mL
MIC of peptidomimetics (S. aureus 04; 04): 8.1 µM
MIC of peptidomimetics (S. aureus 04; S. aureus 004, MHB (melimine/Mel4 with 0.2% BSA, 0.01% acetic acid), mean MIC): 7.8 µg/mL
MIC of peptidomimetics (A. baumannii ATCC 19 606; [17]): 62.5 µg/mL
MIC of peptidomimetics (A. baumannii ATCC 19 606; ATCC 19): 64.9 µM
MIC of peptidomimetics (S. aureus 105; 105): 8.1 µM
MIC of peptidomimetics (S. aureus 105; [18]): 7.8 µg/mL
Geometric mean MIC, all bacteria [2]: 32.2 µg/mL
Geometric mean MIC, all bacteria ([2]; value in brackets): 33.4 µM
Fold increase in geometric mean MIC relative to TM8 ([2]; bacteria): 4 fold
MIC against C. auris (C. auris CBS12373; [19]): 3.9 µg/mL
MIC against C. auris (C. auris CBS12373; CBS12373): 4.0 µM
